In US11098040B2, “Compounds and methods of use” (Ferro Therapeutics, Inc., priority 2018, dated 2021):
“And” between values parts separate entries of the source, which are not always exact repeats. Equal values may be shown once.

Tests used:
PANC1 = assay: Cell viability assay (CellTiter Glo), pancreatic cell line PANC1; type: cell-based; conditions: Homo sapiens, PANC-1, 96 hours
Protocol: (§1) Cell viability assay was performed to assess the potency of the compounds in human cancer cell lines KP4 (pancreatic ductal adenocarcinoma), MiaPaCa-2 (pancreatic carcinoma), AsPC-1 (pancreatic adenocarcinoma, ascites), 143B (osteosarcoma), and SJSA-1 (osteosarcoma). Selected compounds were also assayed in a human breast epithelial cell line MCF-10A, a nontumorigenic cell line as a control to assess differential activity. Cells at a density of 500-5,000 cells/well were seeded in 96-well plates and incubated at 37° C. overnight. A series of 9 different concentrations of compound stocks (500×) were created by 3-fold serial dilution in DMSO. These compounds were further diluted in culture media and then added to cells so that the final DMSO concentration was equal to 0.25% or less. After 96 hours of incubation, 50 μL of CellTiter Glo reagent (Promega) was added to each well and luminescence was measured after 10 minutes using EnVision (PerkinElmer). Compounds titrated from top concentration of up to 30 μM. The select compounds were tested initially from 30 μM as the top concentration in duplicates (range of 4.6 nM-30 μM). […] Luminescence from cells treated with DMSO alone was set as Max and % of inhibition was calculated as follows: Inhibition %=(Max-Sample value)/Max*100. Data was analyzed using XL-fit software (ID Business Solutions Ltd.). IC50, relative IC50, or % of top inhibition was calculated.
(§2) A group of selected analogs were further profiled in cell viability assays described above in multiple additional cancer cell lines, including lung cancer, melanoma, hepatocarcinoma, pancreatic cancer, leukemia, lymphoma, ovarian cancer, breast cancer, colon cancer, and sarcoma cell lines. Initial cell seeding numbers were adjusted for each cell line. Typically, 500-5000 cells/well for adherent cells and 5000-10000/well for suspension cells were seeded in 96-well plates.
The results of the assay in the pancreatic cell lines are given in Table 15a for PANC1, Table 15b for MiaPaCa-2, and Table 15c for AsPC-1.

143B = assay: Cell viability assay (CellTiter Glo), osteosarcoma 143B; type: cell-based; conditions: Homo sapiens, 96 h, osteosarcoma, 96 hours, CellTiter Glo, read-out: IC50 143B
Protocol: as §1
(§3) The results of the assay in sarcoma cell lines are given in Table 21a for HT-1080 luc2 (fibrosarcoma expressing a luciferase gene), Table 21b for 143B (osteosarcoma), and Table 21c for SJSA-1 (osteosarcoma).

HL-60 = assay: Cell viability assay (CellTiter Glo), leukemia cell line HL-60; type: cell-based; conditions: Homo sapiens, 96 hours
Protocol: as §1, §2
(§4) The results of the assay in the leukemia cell lines are given in Table 16a for MV-4-1 and Table 16b for HL-60 and Kasumi-1.

Raji = assay: Cell viability assay (CellTiter Glo), lymphoma cell line Raji; type: cell-based; conditions: Homo sapiens, 96 hours
Protocol: as §1, §2

SK-OV-3 = assay: Cell viability assay (CellTiter Glo), ovarian cancer cell line SK-OV-3; type: cell-based; conditions: Homo sapiens, 96 hours
Protocol: as §1, §2

MDA-MB-435S = assay: Cell viability assay (CellTiter Glo), melanoma cell line MDA-MB-435S; type: cell-based; conditions: Homo sapiens, 96 hours
Protocol: as §1, §2

H2228 = assay: Cell viability assay (CellTiter Glo), lung cancer cell line H2228; type: cell-based; conditions: Homo sapiens, NCI-H2228; lung cancer cell line, 96 hours, CellTiter Glo; read-out: IC50 H2228
Protocol: as §1, §2

MV-4-1 = assay: Cell viability assay (CellTiter Glo), leukemia cell line MV-4-1; type: cell-based; conditions: 96 hours
Protocol: as §1, §2, §4

SW480 = assay: Cell viability assay (CellTiter Glo), colon cancer cell line SW480; type: cell-based; conditions: Homo sapiens, 96 hours
Protocol: as §1, §2

Kasumi-1 = assay: Cell viability assay (CellTiter Glo), leukemia cell line Kasumi-1; type: cell-based; conditions: Homo sapiens, 96 hours
Protocol: as §1, §2, §4

HCC1954 = assay: Cell viability assay (CellTiter Glo), breast cancer cell line HCC1954; type: cell-based; conditions: Homo sapiens, 96 hours
Protocol: as §1, §2

HT-1080 luc2 = assay: Cell viability assay (CellTiter Glo), fibrosarcoma HT-1080 luc2; type: cell-based; conditions: Homo sapiens, fibrosarcoma expressing a luciferase gene, 96 hours, CellTiter Glo, read-out: IC50 HT-1080 luc2
Protocol: as §1, §2, §3

H1299 = assay: Cell viability assay (CellTiter Glo), lung cancer cell line H1299; type: cell-based; conditions: Homo sapiens, NCI-H1299, 96 hours
Protocol: as §1, §2

Huh7 = assay: Cell viability assay (CellTiter Glo), hepatocellular carcinoma Huh7; type: cell-based; conditions: Homo sapiens, Huh-7, 96 hours
Protocol: as §1, §2

SJSA-1 = assay: Cell viability assay (CellTiter Glo), osteosarcoma SJSA-1; type: cell-based; conditions: Homo sapiens, 96 hours
How it was run: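 Cells seeded at 500-5,000/well overnight, then 96 h exposure to 9-point 3-fold dilutions from up to 30 μM (4.6 nM-30 μM), final DMSO ≤0.25%. Viability by CellTiter Glo luminescence; inhibition relative to DMSO-only cells, yielding IC50, relative IC50 or % top inhibition.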

[1] = Pharmacokinetic (PK) studies in Balb/C nude mice via intraperitoneal injection; conditions: plasma; for concentration at 0.5 h / concentration at 4 h: Calculated Concentration; for concentration at 0.5 h / concentration at 4 h / Calculated Concentration: IP 15 mg/kg, Balb/C nude mice
Protocol: (§6) Test compounds were dissolved either in 20% (w/w) sulfobutylether-β-cyclodextrin (SBECD) pH 3-7 aqueous solution, or 5% DMSO/(30-50%) PEG400/(65-45%) water. Test compound dosing solutions were administered intraperitoneally to Balb/c nude male mice. Blood samples were collected at various time points with EDTA-K2 as anti-coagulant on ice, and centrifuged to obtain plasma samples. The plasma samples were stored at −20° C. until analysis.
(§7) Into 10 μL of test compound plasma samples were added 2 μL DMSO then 200 μL of 5 ng/mL internal standard (VTSD) (Terfenadine) in MeOH/acetonitrile. The mixture was vortexed for 1 minute and centrifuged at 4000 rpm for 15 minutes. Calibration standards were prepared by spiking known amount of test compounds into blank plasma samples. The supernatant solution was diluted 5 times with Acetonitrile/H2O (with 0.1% formic acid, 1:1, v/v), and this is the solution for LC-MS/MS analysis. The limit of quantification (LOQ) was 1 ng/mL.
(§8) Typical HPLC mobile phases were mobile phase of 5 mM NH4OAc (with 0.05% formic acid); and mobile phase B of acetonitrile (with 0.1% formic acid). The HPLC column was Kinetex C18 (30 mm×3.00 mm). Mass spectrometer was tuned for each compound in the Multiple Reaction Monitoring (MRM) scanning mode and in the electrospray ionization mode. The lower limit of quantification was 1-10 ng.
(§9) In this study, K601 (RSL3) was formulated in 5% DMSO/30% PEG 400/65% water at 1.5 mg/mL. The volume of injection via intraperitoneal route was 10 mL/kg for a dose of 15 mg/kg. […] The limit of quantification (LOQ) was 1 ng/mL.
(§10) In this study, the compound was formulated in 20% (w/w) sulfobutylether-β-cyclodextrin (SBECD), pH 5 aqueous solution at 1.5 mg/mL. The volume of injection via intraperitoneal route was 10 mL/kg for a dose of 15 mg/kg. The concentration of test compounds in plasma were analyzed by LC-MS with the method described above. The limit of quantification was 1 ng/mL.
(§11) It was formulated in 5% DMSO/50% PEG400/45% Water pH adjusted to 4 with HCl as an aqueous solution at 1.0 mg/mL. The volume of injection via intraperitoneal route was 15 mL/kg for a dose of 15 mg/kg. The concentration of test compounds in plasma were analyzed by LC-MS with the method described above. The limit of quantification was 1 ng/mL. […] The limit of quantification was 1 ng/mL.
(§12) Compounds 24 and 28 were formulated in 20% (w/w) sulfobutylether-β-cyclodextrin (SBECD) with pH 3 and pH 4, respectively, as an aqueous solution at 1.0 mg/mL. Compound 67 was in 5% DMSO/50% PEG 400/45% water pH 4 (adjusted with 12 N HCl) aqueous solution at 1.0 mg/mL. The injection volume via intraperitoneal route was 10 mL/kg for a dose of 15 mg/kg. The concentration of test compounds in plasma were analyzed by LC-MS with the method described above. The limit of quantification was 1 ng/mL.

AsPC-1 = assay: Cell viability assay (CellTiter Glo), pancreatic adenocarcinoma AsPC-1; type: cell-based; conditions: Homo sapiens, ASPC1; pancreatic adenocarcinoma, ascites, 96 hours, CellTiter Glo; read-out: IC50 AsPC-1
How it was run: (§5)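 MiaPaCa-2 and AsPC-1 cells were seeded overnight at 37 °C and exposed for 96 h to 9-point, 3-fold dilutions from up to 30 μM (final DMSO ≤0.25%). CellTiter Glo luminescence was read, and inhibition was calculated relative to DMSO-only cells. IC50, relative IC50 or % top inhibition was derived.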

MiaPaCa-2 = assay: Cell viability assay (CellTiter Glo), pancreatic carcinoma MiaPaCa-2; type: cell-based; conditions: Homo sapiens, MIA PaCa-2; pancreatic carcinoma, 96 hours, CellTiter Glo; read-out: IC50 MiaPaCa-2
How it was run: as §5

HT29 = assay: Cell viability assay (CellTiter Glo), colon cancer cell line HT29; type: cell-based; conditions: Homo sapiens, HT-29, 96 hours
Protocol: as §1, §2

MCF-10A = assay: Cell viability assay (CellTiter Glo), non-tumorigenic breast epithelial cell line MCF-10A; type: cell-based; conditions: Homo sapiens, 96 hours
How it was run: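 MCF-10A cells (500-5,000/well) treated 96 h at 37° C with 9-point 3-fold dilutions from up to 30 μM, ≤0.25% DMSO, in duplicate. Viability by CellTiter Glo luminescence; % inhibition versus DMSO-only wells gave IC50, relative IC50 or % top inhibition. Paclitaxel positive control.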

REC-1 = assay: Cell viability assay (CellTiter Glo), lymphoma cell line REC-1; type: cell-based; conditions: Homo sapiens, Rec1, 96 hours
Protocol: as §1, §2

[2] = Pharmacokinetic (PK) studies via intravenous infusion, Sprague-Dawley rat; type: in vivo; conditions: male, plasma, one rat
Protocol: Test compound dosing solutions were administered via intravenous infusion to Sprague-Dawley male rat.
Into 50 μL of test compound plasma samples were added 5 μL DMSO then 200 μL of 25 ng/mL internal standard (ITSD) (Verapamil) in MeOH/acetonitrile (1:1, v/v). […] The limit of quantification (LOQ) was 1 ng/mL.
The lower limit of quantification was 1-10 ng. A typical HPLC gradient table is described below: […]
The PK profiles of compound 24 and compound 28 are shown below. […] The volume of injection via intravenous infusion route was adjusted for a dose of 2, 4 and 8 mg/kg. […] The limit of quantification was 1 ng/mL.

in vivo = conditions: male, Balb/c nude, mouse, ip, 15 mg/kg, Calculated Concentration
Protocol: as §6, §7, §8, §9, §10, §11, §12

[3] = mouse, in vivo, ip, 15 mg/kg
Protocol: as §6, §7, §8, §9, §10, §11, §12

[4] = male, Balb/c nude, mouse, ip, 15 mg/kg

## COC(=O)c1ccc([C@H]2c3[nH]c4ccccc4c3C[C@H](C(=O)OC)N2C(=O)CCl)cc1 [Example K601, RSL3, reference compound]
PANC1
  IC50: 116 nM
143B
  IC50: 32 nM
HL-60
  IC50: 104 nM
Raji
  IC50: 92 nM
SK-OV-3
  IC50: 142 nM
MDA-MB-435S
  IC50: 37 nM
H2228
  IC50: 75 nM
MV-4-1
  IC50: 258 nM
SW480
  IC50: 619 nM
Kasumi-1
  IC50: 203 nM
HCC1954
  IC50: 180 nM
HT-1080 luc2
  IC50: 27 nM
H1299
  IC50: 35 nM
Huh7
  IC50: 242 nM
SJSA-1
  IC50: 67 nM
[1]; [4]
  AUC: 1.28 ng·h/mL
  AUC(0-t): 1.28 ng·h/mL
  Cmax: 1.33 ng/mL
  Tmax: 1.67 h
[1]; male, Balb/c nude, mouse, ip, 15 mg/kg, 0.5 h, individual mice
  concentration at 0.5 h: 1.18 ng/mL
[1]; male, Balb/c nude, mouse, ip, 15 mg/kg, 4 h, individual mice
  concentration at 4 h: 1.63 ng/mL
[1]; male, Balb/c nude, mouse, ip, 15 mg/kg, Mean, 0.5 h, mean of 3 mice
  concentration at 0.5 h: 0.783 ng/mL
[1]; male, Balb/c nude, mouse, ip, 15 mg/kg, Mean, 4 h, mean of 3 mice
  concentration at 4 h: 0.543 ng/mL
[1]; 0.5 h, individual mice, 15 mg/kg
  Calculated Concentration: BLOQ (BLOQ = Below limit of quantification (which was 1 ng/mL)) and 1.17 ng/mL
[1]; 1 h, individual mice
  Calculated Concentration: BLOQ (BLOQ = Below limit of quantification (which was 1 ng/mL))
[1]; 2 h, individual mice
  Calculated Concentration: BLOQ (BLOQ = Below limit of quantification (which was 1 ng/mL))
[1]; 4 h, individual mice, 15 mg/kg
  Calculated Concentration: BLOQ (BLOQ = Below limit of quantification (which was 1 ng/mL))
AsPC-1
  IC50: 105 nM
MiaPaCa-2
  IC50: 15 nM
HT29
  IC50: 832 nM
MCF-10A
  IC50: 2950 nM
REC-1
  IC50: 227 nM

## COC(=O)[C@H]1Cc2c([nH]c3ccccc23)[C@H](c2ccc(S(=O)(=O)N[C@]34C[C@H]5C[C@H](C[C@H](C5)C3)C4)cc2)N1C(=O)CCl [Example 24]
PANC1
  IC50: 19 nM
143B
  IC50: 4 nM
HL-60
  IC50: 16 nM
Raji
  IC50: 9 nM
SK-OV-3
  IC50: 17 nM
[2]; 1 hour-IV infusion 2 mg/kg
  concentration at 1.0167 hr: 51.7 ng/mL
  concentration at 1.0833 hr: 14.1 ng/mL
  concentration at 1.25 hr: 4.95 ng/mL
  concentration at 1.5 h: 2.18 ng/mL
[2]; 1 hour-IV infusion 4 mg/kg
  concentration at 1.0167 hr: 159 ng/mL
  concentration at 1.0833 hr: 36.4 ng/mL
  concentration at 1.25 hr: 13.8 ng/mL
  concentration at 1.5 h: 5.07 ng/mL
  concentration at 2 h: 2.62 ng/mL
[2]; 1 hour-IV infusion 8 mg/kg
  concentration at 1.0167 hr: 259 ng/mL
  concentration at 1.0833 hr: 97.5 ng/mL
  concentration at 1.25 hr: 34 ng/mL
  concentration at 1.5 h: 17.3 ng/mL
  concentration at 2 h: 6.52 ng/mL
[2]; 1 hour-IV infusion 8 mg/kg, 3 hr
  concentration at 3 h: 2.92 ng/mL
MDA-MB-435S
  IC50: 4 nM
H2228
  IC50: 18 nM
MV-4-1
  IC50: 21 nM
SW480
  IC50: 167 nM
Kasumi-1
  IC50: 88 nM
HCC1954
  IC50: 39 nM
HT-1080 luc2
  IC50: 15 nM
In vivo
  concentration at 0.5 h: 332 ng/mL
  concentration at 1 h: 355 ng/mL
  concentration at 2 h: 50.5 ng/mL
  concentration at 4 h: 3.41 ng/mL
In vivo; Mean
  concentration at 0.5 h: 464 ng/mL
  concentration at 1 h: 317 ng/mL
  concentration at 2 h: 44.5 ng/mL
  concentration at 4 h: 4.56 ng/mL
[3]
  exposure (Cmax, AUC) compared with K601 (RSL3): higher exposure
H1299
  IC50: 3 nM
Huh7
  IC50: 22 nM
SJSA-1
  IC50: 13 nM
AsPC-1
  IC50: 19 nM
MiaPaCa-2
  IC50: 2 nM
HT29
  IC50: 87 nM
MCF-10A
  IC50: 410 nM
REC-1
  IC50: 33 nM
